From ChEMBL document CHEMBL1140558, “An atom efficient, solvent-free, green synthesis and antimycobacterial evaluation of 2-amino-6-methyl-4-aryl-8-[(E)-arylmethylidene]-5,6,7,8-tetrahydro-4H-pyrano[3,2-c]pyridine-3-carbonitriles” (2007)
≈ marks a conversion by molar mass, not a printed value.

Test system: Mycobacterium tuberculosis
Assay: Antimycobacterial activity against multidrug-resistant Mycobacterium tuberculosis by agar dilution method
Assay type: functional

Row | SMILES | MIC [µM]
1 | CN1CC2=C(OC(N)=C(C#N)C2c2cccc(F)c2)/C(=C/c2cccc(F)c2)C1 (stereo not drawn) | 1.99 (≈ 0.779 µg/mL)
2 | COc1c(N2CCNC(C)C2)c(F)cc2c(=O)c(C(=O)O)cn(C3CC3)c12 (stereo not drawn) [GATIFLOXACIN] | 8.34 (≈ 3.13 µg/mL)
3 | NNC(=O)c1ccncc1 [ISONIAZID] | 45.6 (≈ 6.25 µg/mL)
4 | CN1CC2=C(OC(N)=C(C#N)C2c2ccc(N(C)C)cc2)/C(=C/c2ccc(N(C)C)cc2)C1 (stereo not drawn) | 0.43 (≈ 0.19 µg/mL)
5 | CN1CC2=C(OC(N)=C(C#N)C2c2ccc(Cl)cc2)/C(=C/c2ccc(Cl)cc2)C1 (stereo not drawn) | 1.84 (≈ 0.781 µg/mL)
6 | CN1CC2=C(OC(N)=C(C#N)C2c2ccc(F)cc2)/C(=C/c2ccc(F)cc2)C1 (stereo not drawn) | 0.97 (≈ 0.38 µg/mL)
7 | CN1CC2=C(OC(N)=C(C#N)C2c2cccc([N+](=O)[O-])c2)/C(=C/c2cccc([N+](=O)[O-])c2)C1 (stereo not drawn) | 1.75 (≈ 0.78 µg/mL)
8 | CN1CC2=C(OC(N)=C(C#N)C2c2ccccc2Cl)/C(=C/c2ccccc2Cl)C1 (stereo not drawn) | 3.68 (≈ 1.56 µg/mL)
